Results: patent EP0795549A1, “Bis-aryloxy(amino)-triazinyl-oxy(amino)aryl derivatives, their preparation and their use as antiviral agents” (American Cyanamid Company, priority 1996, dated 1997)

Tests used:
RSV (A2) = assay: viral yield reduction (growth inhibition) assay, RSV; format: cell-based, Respiratory Syncitial Virus
Procedure: The compounds were tested for biological activity using viral yield reduction assays. Host cells (indicated as HF for human foreskin fibroblasts and as vero, the commonly used African green monkey cell line, in Tables 1 and 1a) were plated at 4 x 10^4 cells/well in cell growth medium with 2% fetal bovine serum or 2% calf serum in 96-well plates (0.1 ml/well) and incubated overnight. The compounds were added to individual wells to give final concentrations ranging from 50 to 0.1 µg/ml in two-fold concentration steps. After 1 hour, virus was added, and the incubation was continued for 4 days with RSV or CMV and for 2 days with HSV. At the end of the experiment, the amount of virus growth was quantitated and the yield reduction at various concentrations of compound was calculated. This allows estimation of the concentration of compound giving 50% reduction in virus growth (IC50).

RSV [1] = assay: time of addition: effect on viral protein synthesis in infected Vero cells; format: cell-based
Procedure: The time in the virus life-cycle when Example 1 exerts its effect was determined to increase understanding of the mechanism of action. This was accomplished by adding and removing the compound at various times relative to infection and assessing the effect on viral protein synthesis. Vero cells were infected on ice for 1 hour, unadsorbed virus was removed, and then the infected cells were incubated at 37°C for 18 hours (virus adsorption will occur on ice, but fusion will not proceed until the temperature is raised to 18°C or above). After the 18 hour incubation at 37°C (when the bulk of ongoing protein synthesis was directed by viral RNAs), ^35S-methionine was added for 2 hours, the cells were lysed, and the labeled proteins were analyzed on SDS-PAGE gels. The viral N, P, and M proteins were then evident. […] However, when the compound of Example 1 was added even after only 5 minutes incubation at 37°C, viral protein production was unimpeded. Therefore, the process inhibited was the fusion process or some closely succeeding step which is required for later viral gene expression.

RSV A2 = format: in vivo, cotton rats; conditions: cotton rats, summary of Table 3
RSV [2] = assay: viral plaque reduction assay, RSV; format: cell-based, Respiratory Syncitial Virus
CMV (Ad169) = assay: viral plaque reduction assay, CMV; format: cell-based, Cytomegalovirus
HSV1 (Patton) = assay: viral plaque reduction assay, HSV1; format: cell-based, Herpes Simplex Virus; conditions: HSV1 (Patton), vero host cells
HSV2 = assay: viral plaque reduction assay, HSV2; format: cell-based, herpes simplex virus; conditions: Pre
HPIV3 = assay: viral plaque reduction assay, HPIV3; format: cell-based, human parainfluenza virus type 3, strain Washington; conditions: HPIV3 WASH., VERO, Pre
FLU = assay: viral plaque reduction assay, influenza; format: cell-based; conditions: Pre

Substance: 4,4'-Bis[4,6-di[3-aminophenyl-N,N-bis(2-carbamoyl-ethyl)sulfonylimino]-1,3,5-triazin-2-ylamino]-stilbene-2,2'-disulfonic acid, disodium salt [Example 1]
- IC50 µG/mL IN GROWTH […]/ HF (RSV (A2); HF host cells): 0.3 µg/mL
- IC50 µG/mL IN GROWTH […]/ VERO (RSV (A2); vero host cells): 0.5 µg/mL
- viral protein synthesis (RSV [1]; 10 µg/ml added immediately after virus adsorption and before raising the incubation temperature to 37°C): fully prevented
- viral protein production (RSV [1]; added after only 5 minutes incubation at 37°C): unimpeded
- inhibition of RSV in vivo (summary in words) (RSV A2): inhibit RSV in vivo
- IC50 (µG/ml) viral plaque formation (RSV [2]; RSV 2B, VERO, Pre): 0.1 µg/mL
- IC50 (µG/ml) viral plaque formation (RSV [2]; RSV 3A, VERO, Pre): 0.5 µg/mL
- IC50 (µG/ml) viral plaque formation (RSV [2]; RSV 9320, VERO, Pre): 0.2 µg/mL
- IC50µG/mL IN PLAQUE ASSAY RSV/ VERO (RSV [2]; RSV (A2), vero host cells): 0.3 µg/mL
- IC50 (µG/ml) viral plaque formation (RSV [2]; RSV A2, HF, Post 2 hours): <3 µg/mL
- IC50 (µG/ml) viral plaque formation (RSV [2]; RSV A2, HF, Pre): 0.4 µg/mL
- IC50 (µG/ml) viral plaque formation (RSV [2]; RSV A2, MDBK, Pre): 0.4 µg/mL
- IC50 (µG/ml) viral plaque formation (RSV [2]; RSV A2, SKNSH, Pre): 0.4 µg/mL
- IC50 (µG/ml) viral plaque formation (RSV [2]; RSV A2, VERO, Post 2 hours): 0.3 µg/mL
- IC50 (µG/ml) viral plaque formation (RSV [2]; RSV A2, VERO, Post 24 hours): 0.4 µg/mL
- IC50 (µG/ml) viral plaque formation (RSV [2]; RSV A2, VERO, Pre (pretreatment)): 0.3 µg/mL
- IC50 (µG/ml) viral plaque formation (RSV [2]; RSV LONG, VERO, Pre): 0.2 µg/mL
- active against all RSV strains tested (plaque assays) (RSV [2]; all RSV strains tested): 0.1 to 0.7 µg/mL
- IC50µG/mL IN PLAQUE ASSAY CMV/ HF (CMV (Ad169); CMV (Ad169), HF host cells): 7 µg/mL
- IC50 (µG/ml) viral plaque formation (CMV (Ad169); HCMV Ad169, HF, Pre): 15 µg/mL
- IC50µG/mL IN PLAQUE ASSAY HSV/ VER O (HSV1 (Patton)): 8 µg/mL
- IC50 (µG/ml) viral plaque formation (HSV2; HSV2 12, VERO): >10 µg/mL
- IC50 (µG/ml) viral plaque formation (HSV2; HSV2 333, VERO): 3 µg/mL
- IC50 (µG/ml) viral plaque formation (HSV2; HSV2 MS, VERO): 5 µg/mL
- IC50 (µG/ml) viral plaque formation (HPIV3): 20 µg/mL
- IC50 (µG/ml) viral plaque formation (FLU; FLU A1/FM/1/47, MDCK): >50 µg/mL
- IC50 (µG/ml) viral plaque formation (FLU; FLU A2/HK/8/68, MDCK): >50 µg/mL
- IC50 (µG/ml) viral plaque formation (FLU; FLU A2/JPN/305/57, MDCK): >50 µg/mL
- IC50 (µG/ml) viral plaque formation (FLU; FLU A/Beij/32/92, MDCK): >20 µg/mL
- IC50 (µG/ml) viral plaque formation (FLU; FLU A/Texas/36/91, MDCK): 5 µg/mL
- IC50 (µG/ml) viral plaque formation (FLU; FLU B/Pana/45/90, MDCK): >20 µg/mL
